{"source": "patent US20230338347A1", "about": "“New Use of Inhibitors of the Notch Signalling Pathway” (Cellestia Biotech AG, priority 2020, published 2023)", "key": {"[1]": {"tested_on": "adenoid cystic carcinoma (ACC)", "assay": "Phase I/IIA study: preliminary clinical efficacy (best response, disease control rate)", "assay_type": "in vivo, human", "details": "for Disease control rate (CR, PR or SD / patients treated): 19 ACC patients", "description": "Each lane represents one patient and the length of the lane represents the duration of treatment. […] Disease control rate of 19 patients with adenoid cystic carcinoma at 8 weeks and 20 weeks was 79% and 58%, respectively (calculated as number of patients with complete or partial response, or stable disease divided by the number of patients with that indication treated). Abbreviations: SD, stable disease; PD, progressive disease; NA, not applicable).\n(§1) The primary outcome measures for this study are: • Part A (Escalation): Dose limiting toxicities (DLT) • Part B (Expansion): Best overall response according to the respective tumour assessment criteria for the different cancer indications.\nThe Notch status of the other patients is under investigation. Disease control rate (DCR) of 19 ACC patients at 8 weeks and 20 weeks was 79% and 58%, respectively (DCR defined as number of patients with CR, PR, or SD divided by the number of patients treated)."}, "[2]": {"tested_on": "NOTCH target genes", "assay": "NOTCH target gene expression in hair follicles of Phase 1 patients (Nanostring)", "assay_type": "in vivo, human", "details": "several NOTCH target genes, starting at Cycle 2 day 1", "description": "Hair follicles were obtained at pre-defined time points to measure changes in NOTCH target genes expression by 6-(4-Tert-Butylphenoxy)Pyridin-3-Amine treatment. NOTCH target gene down-regulation in hair follicles has been reported to be a robust and indicative biomarker that correlates with both clinical efficacy and the incidence of DLTs (Tanis K Q, et al. Clin Pharmacol Ther 2016; 99(4):370-80; Cook N, et al. BJC 2018; 118(6):793-801).\nBetween 5 to 10 hairs were plucked to extract the complete and undamaged hairbulb (full hair follicle), and processed as described in Camidge D R, et al. Br J Cancer 2005; 92:1837-41 and Bradley B J, et al. Mol EcolNotes 2005; 5:961-4. RNA concentration was measured by Qubit (RNAHighSensitivity), and RNA integrity was evaluated on a RNA 6000 Pico chip. RNA samples were tested for gene expression profiling on a Nanostring platform.\nTable 1: NOTCH target down regulation in hair follicles and blood cells from Phase 1 patients. Target gene down regulation (CCND3, cyclin-D3; HES1, Hairy and enhance of split-1; HES4, Hairy and enhance of split-4; HESS, Hairy and enhance of split-5; HEY1, hes related family bHLH transcription factor with YRPW motif1; HEY2; hes related family bHLH transcription factor with YRPW motif 2; HEYL, hes-related family bHLH transcription factor with YRPW motif-like; IL7R-α, Interleukin-7 receptor subunit alpha; NOTCH1; NOTCH2; NRARP (NOTCH Regulated Ankyrin Repeat Protein): […]"}, "[3]": {"assay": "Phase I/IIA first-in-human dose escalation: safety and tolerability (adverse events, DLT)", "details": "in vivo", "description": "[…], open-label study investigating the safety, tolerability, pharmacokinetics (PK), pharmacodynamics (PD) and preliminary efficacy of the pan-NOTCH inhibitor 6-(4-Tert-Butylphenoxy)Pyridin-3-Amine in adult patients with locally advanced or metastatic solid tumours or hematologic malignancies.\n6-(4-Tert-Butylphenoxy)Pyridin-3-Amine is orally administered and is a small molecule targeting the NOTCH signalling pathway with binding to the NOTCH-specific transcription complex located at the nucleus of cells. The study is divided into two parts with Part A being the dose escalation part of the study to determine the maximum tolerated dose (MTD) or recommended Phase II dose (RP2D). In Part A at least 3, up to 6 patients per dose will participate in the sequentially enrolled dose cohorts. In an additional cohort of approximately 45-50 patients, the safety of the previously determined RP2D will be confirmed (dose confirmatory cohort).\nThe dosing will be 15, 30, 60, 120, 170, 250, 400, or 600 mg of the 6-(4-Tert-Butylphenoxy)Pyridin-3-Amine monohydrochloride salt or higher per day or alternatively 20, 40, 60, 120, 170, 250, 400, or 600 mg of the 6-(4-Tert-Butylphenoxy)Pyridin-3-Amine monohydrochloride salt or higher per day. Dosing of 15, 30, 60, 120, 170, 250, 400, or 600 mg of the 6-(4-Tert-Butylphenoxy)Pyridin-3-Amine monohydrochloride salt corresponds to dosing of 13, 26, 52, 104, 148, 217, 348, or 522 mg of 6-(4-Tert-Butylphenoxy)Pyridin-3-Amine (free base). Dosing of 20, 40, 60, 120, 170, 250, 400, or 600 mg of the 6-(4-Tert-Butylphenoxy)Pyridin-3-Amine monohydrochloride salt corresponds to dosing of 17, 35, 52, 104, 148, 217, 348, or 522 mg of 6-(4-Tert-Butylphenoxy)Pyridin-3-Amine (free base). For this study, 6-(4-Tert-Butylphenoxy)Pyridin-3-Amine monohydrochloride salt was formulated into a capsule having a drug load of 5, 10, 20, 50 and 100 mg, respectively intended to be administered orally. • Patients will meet the following criteria:\nas §1\nFourty-one patients (median age 55 years, range 25 to 76 years) have been treated with 6-(4-Tert-Butylphenoxy)Pyridin-3-Amine in the dose escalation part of the clinical study at oral doses of 15 mg-600 mg QD (once a day). […] Cumulatively, a total of 352 AEs has occurred in 41 patients since study initiation, of which 132 AEs […] in 31 patients were considered related to the study drug. The treatment-related treatment-emergent AEs (TEAEs) most commonly reported (≥10% of patients) were nausea (24%), diarrhea (20%), dyspepsia (15%), fatigue (12%), and vision blurred (12%)."}}, "data": [{"smiles": "CC(C)(C)c1ccc(Oc2ccc(N)cn2)cc1", "note": "[6-(4-Tert-Butylphenoxy)Pyridin-3-Amine]", "values": [{"measurement": "number of ACC patients with radiologically confirmed stable disease", "setting": "[1]; 4 of them with Notch activating mutation", "value": "Ten"}, {"measurement": "Disease control rate (CR, PR or SD / patients treated)", "setting": "[1]; at 8 weeks", "value": 79, "unit": "%"}, {"measurement": "Disease control rate (CR, PR or SD / patients treated)", "setting": "[1]; at 20 weeks", "value": 58, "unit": "%"}, {"measurement": "best response", "setting": "[1]; at doses showing target engagement", "value": "durable stable disease"}, {"measurement": "average NOTCH target gene downregulation compared to baseline (inhibition)", "setting": "[2]", "value": "higher than 90%"}, {"measurement": "AEs considered related to the study drug, share of all AEs", "setting": "[3]; human", "value": 37.2, "unit": "%"}, {"measurement": "number of AEs considered related to the study drug", "setting": "[3]; human", "value": 132}, {"measurement": "number of patients with AEs considered related to the study drug", "setting": "[3]; human", "value": 31}, {"measurement": "number of serious adverse events (SAEs)", "setting": "[3]; human", "value": 12}, {"measurement": "related AE of tachycardia", "setting": "[3]; human", "value": "one related AE of tachycardia Grade 1"}, {"measurement": "serious adverse events, share of all AEs", "setting": "[3]; human", "value": 3.4, "unit": "%"}, {"measurement": "total number of AEs", "setting": "[3]; human", "value": 352}, {"measurement": "treatment-related TEAE diarrhea", "setting": "[3]; human", "value": 20, "unit": "%"}, {"measurement": "treatment-related TEAE dyspepsia", "setting": "[3]; human", "value": 15, "unit": "%"}, {"measurement": "treatment-related TEAE fatigue", "setting": "[3]; human", "value": 12, "unit": "%"}, {"measurement": "treatment-related TEAE nausea", "setting": "[3]; human", "value": 24, "unit": "%"}, {"measurement": "treatment-related TEAE vision blurred", "setting": "[3]; human", "value": 12, "unit": "%"}, {"measurement": "QTc prolongation", "setting": "[3]", "value": "no QTc prolongations"}, {"measurement": "SAEs considered related to study drug", "setting": "[3]", "value": "one SAE was considered related to study drug"}, {"measurement": "cardiotoxicity signal", "setting": "[3]", "value": "no signal of cardiotoxicity"}, {"measurement": "deaths due to drug-related AEs", "setting": "[3]", "value": "No deaths due to drug-related AEs"}, {"measurement": "dose limiting toxicity (DLT)", "setting": "[3]", "value": "one dose limiting toxicity"}, {"measurement": "dose relation of AEs over the dose cohorts", "setting": "[3]", "value": "no evidence of dose relation"}, {"measurement": "skin phototoxicity or eye mydriasis events", "setting": "[3]", "value": "No events of skin phototoxicity or eye mydriasis"}]}]}
